Experimental data as given in ChEMBL document CHEMBL1201862, “PubChem BioAssay data set” (2004).
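48-hour exposure; five concentrations; linearly interpolated endpoints. GI50 = concentration required for 50% inhibition of growth.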 Active and inactive are the calls of the source. Cut-off read from the data, not from the text of the source: active = GI50 up to about 1.1 µM and inactive = higher.

Experiments:
Experiment in all cases: NCI tumour cell line growth inhibition, 48 h
A498 = system: A498
COLO 205 = system: COLO 205
IGROV-1 = system: IGROV-1
LOX IMVI = system: LOX IMVI
MOLT-4 = system: MOLT-4
OVCAR-5 = system: OVCAR-5
OVCAR-8 = system: OVCAR-8
RPMI-8226 = system: RPMI-8226
SF-295 = system: SF-295
SK-MEL-28 = system: SK-MEL-28
SNB-19 = system: SNB-19
SNB-75 = system: SNB-75
TK-10 = system: TK-10
UACC-257 = system: UACC-257
SW-620 = system: SW-620

Measured: GI50

C[C@@H]1O[C@@H](O[C@H]2[C@H](Oc3cc(O)c4c(=O)cc(-c5ccc(O)cc5)oc4c3)O[C@H](CO)[C@@H](O)[C@@H]2O)[C@H](O)[C@H](O)[C@H]1O [RHOIFOLIN]
inactive: A498 > 100 µM | COLO 205 > 100 µM | IGROV-1 > 100 µM | LOX IMVI > 100 µM | MOLT-4 > 100 µM | OVCAR-5 > 100 µM | OVCAR-8 > 100 µM | RPMI-8226 > 100 µM | SF-295 > 100 µM | SK-MEL-28 > 100 µM | SNB-19 > 100 µM | SNB-75 > 100 µM | TK-10 > 100 µM | UACC-257 > 100 µM

COC(=O)C(C(=O)C(=O)Nc1nc2ccc(OC)cc2s1)c1cnc2ccccc2n1 (centres undefined)
inactive: A498 > 100 µM | COLO 205 > 100 µM | IGROV-1 > 100 µM | LOX IMVI > 100 µM | MOLT-4 > 100 µM | OVCAR-5 > 100 µM | RPMI-8226 > 100 µM | SF-295 > 100 µM | SK-MEL-28 > 100 µM | SNB-19 > 100 µM | SNB-75 > 100 µM | SW-620 > 100 µM | TK-10 > 100 µM | UACC-257 > 100 µM

Cc1ccc(-c2c(N)nc(NC#N)nc2CCC(=O)Nc2ccccc2[N+](=O)[O-])cc1
inactive: A498 > 100 µM | COLO 205 > 100 µM | IGROV-1 > 100 µM | LOX IMVI > 100 µM | MOLT-4 > 100 µM | OVCAR-5 > 100 µM | RPMI-8226 > 100 µM | SF-295 > 100 µM | SK-MEL-28 > 100 µM | SNB-19 > 100 µM | SNB-75 > 100 µM | SW-620 > 100 µM | TK-10 > 100 µM | UACC-257 > 100 µM

FC(F)(F)c1ccccc1C1SCc2nc3ccccc3n21 (centres undefined)
inactive: A498 12.3 µM | COLO 205 59.8 µM | IGROV-1 60.1 µM | MOLT-4 23.9 µM | OVCAR-5 28.8 µM | OVCAR-8 61.4 µM | RPMI-8226 23 µM | SF-295 57.1 µM | SK-MEL-28 77.8 µM | SNB-19 > 100 µM | SNB-75 > 100 µM | SW-620 > 100 µM | TK-10 > 100 µM | UACC-257 26.1 µM

CCCCOC(=O)NC(=O)c1cn(CCSCCOC(=O)NCCCCCCNC(=O)OCCSCCn2cc(C(=O)NC(=O)OCCCC)c(=O)[nH]c2=O)c(=O)[nH]c1=O
inactive: A498 29.4 µM | COLO 205 > 100 µM | IGROV-1 37.7 µM | LOX IMVI > 100 µM | OVCAR-5 > 100 µM | RPMI-8226 > 100 µM | SF-295 26.6 µM | SK-MEL-28 > 100 µM | SNB-19 26.6 µM | SNB-75 19 µM | SW-620 > 10 µM | TK-10 30.1 µM | UACC-257 > 100 µM
